Columns and labels:
[1] = pH of suspensions of grain samples in distilled water or PBS; conditions: 1% (w/w) in distilled water
Protocol: The untreated sample (A) was compared visually against the corresponding quicklime-treated sample (B).
On Day 7, 10 g amounts of each sample were suspended in either 90 ml PBS or 90 ml sterile distilled water and shaken for 10 minutes. The pH of each suspension was then measured and compared.
On Day 9, 10 g of each sample was suspended in 90 ml PBS and shaken for 10 minutes. The pH was measured.

[2] = test system: yeast; assay: Yeast count of spent brewer's / wet distiller's grains stored at ambient temperature; type: cell-based
[3] = test system: mould; assay: Mould count of spent brewer's / wet distiller's grains stored at ambient temperature; type: cell-based
Protocol: (§1) Samples of Portion 1 (“AR”), Portion 3 (“SO”) and Portion 5 (“SH”) were then delivered to a microbiological testing facility about 15 kilometres from the treatment laboratory. Each was tested for initial total microbial, yeast and mould counts, respectively.
(§2) Separate untreated samples were similarly stored under insect-proof screens at ambient temperature for seven days (as shown in Tables 1 and 2). During the trial period the ambient temperature ranged from 11 to 33 degrees C.
(§3) The free moisture content on the initial spent brewer's grains was determined to be 78.1% m/m. After exposure to the environment for seven days, all of the samples were tested at a South African National Accreditation System (SANAS) approved microbiological testing facility. Each was tested for total micro-organism, yeast and mould counts to determine the affect of the various treatments. A similar procedure to that described in K. A. Rosentrater et al, Food Bioprocess Technol (2008) was used for the microbiological evaluation.
At the laboratory, the samples were thoroughly mixed and initially split into a first portion (Portion 1) and a second portion (Portion 2). Portion 1 was left untreated. A sample of Portion 1, was delivered immediately to a microbiological testing facility about 15 kilometres away from the treatment laboratory and was tested for initial total microbial, yeast and mould counts, respectively. No water removal prior to treatment was done in this experiment as was the case in Example 8 wherein a similar wet material was partially dewatered by pressing and the residue treated with 10% (w/w/) calcium oxide.
Samples from Portion 2 were subjected to treatment with varying amounts of a powdered, commercially-available calcium oxide containing approximately 94% calcium oxide (CaO) as shown in Table 32. […] The samples were stored in batches (according to the calcium oxide treatment) under insect-proof screens at ambient temperature for fifty six days. Separate untreated samples were similarly stored under insect-proof screens at ambient temperature for a total of 56 days. During the trial period the ambient temperature ranged from 10 to 30 degrees C. As this period was the southern hemisphere spring/early summer, the humidity as well as ambient temperatures varied widely.
as §3, with “79.4%” for “78.1%”
(§4) Samples from each treatment were drawn every seven days. No further calcium oxide treatment or agitation took place after the initial mix. In each case the entire sample was isolated and delivered to the microbiological testing facility.
The calcium oxide treatment trial described in Example 9 wherein wet distiller's grains were treated with 2.5%, 5% and 10.0% calcium oxide, respectively, versus untreated material was repeated using lower doses of calcium oxide. In this trial the same source of wet distiller's grains (again with now partial water removal prior to treatment) was treated. Also, the same protocol as described in Example 9 was applied, but at lower doses of calcium oxide i.e. 0.5%, 1.0%, 1.5%, 2.0% and 2.5%, respectively, versus untreated material.
In this trial the same source of wet distiller's grains (again with now partial water removal prior to treatment) was treated. Also, the same protocol as described in Example 9 was applied.

[4] = test system: total micro-organism; assay: Total microbial (plate) count of spent brewer's / wet distiller's grains stored at ambient temperature; type: cell-based; set-up: total microbial count: unit: cfu/gram
Text: Samples of spent brewer's grains were drawn from the discharge line of a brewery in South Africa. The samples, packed in dry ice in a cold box, were transported over a distance of approximately 40 kilometres to a laboratory. At the laboratory, the samples were thoroughly mixed and initially split into a first portion (Portion 1) and a second portion (Portion 2). The second portion was about twice the size of the first. Portion 1 was left untreated. Material produced from Portion 1 and Portion 2 is designated below using the code “AR” (as received).
Portion 2 was placed on a clean, standard, laboratory screen deck with 1.4 mm apertures supported from below. As much water as possible was manually squeezed out with a clean flat plastic disc and the sample was then manually remixed after the squeezing. The squeezed material was then split into a third portion (Portion 3) and a fourth portion (Portion 4) of approximately the same size. Material produced from Portion 3 and Portion 4 is designated below using the code “SO” (squeezed).
Portion 4 was added to a high speed kitchen food-shredder and shredded for about two minutes. The shredded material was then returned to the 1.4 mm aperture screen and squeezed again, as described above, and manually remixed again after the second squeezing to produce a shredded and squeezed portion (Portion 5). Material produced from Portion 5 is designated below using the code “SH” (shredded).
as §1, §2
After exposure to the environment for seven days, all of the samples were tested at a South African National Accreditation System (SANAS) approved microbiological testing facility. Each was tested for total micro-organism, yeast and mould counts to determine the affect of the various treatments.
Samples of spent brewer's grains were drawn from the discharge line of a brewery in South Africa.
At the laboratory, the samples were thoroughly mixed and initially split into a first portion (Portion 1) and a second portion (Portion 2). Portion 1 was left untreated. A sample of Portion 1, was delivered immediately to a microbiological testing facility about 15 kilometres away from the treatment laboratory and was tested for initial total microbial, yeast and mould counts, respectively.
Samples from Portion 2 were subjected to treatment with varying amounts of a powdered, commercially-available calcium oxide containing approximately 94% calcium oxide (CaO) as shown in Table 32. The treatments varied from 2.5 to 10% (w/w) calcium oxide addition. The samples were stored in batches (according to the calcium oxide treatment) under insect-proof screens at ambient temperature for fifty six days. […] During the trial period the ambient temperature ranged from 10 to 30 degrees C. As this period was the southern hemisphere spring/early summer, the humidity as well as ambient temperatures varied widely.
as §4
(§5) In this trial the same source of wet distiller's grains (again with now partial water removal prior to treatment) was treated.
as §5

`[Ca+2].[O-]CC(O)CO.[O-]CC(O)CO` [Ca-DGO powder] showed a pH ([1]; dose 15% (w/w), week 0) of 11.50, a pH ([1]; dose 15% (w/w), week 1) of 11.73 and a pH ([1]; dose 15% (w/w), week 2) of 7.33. For the same compound, the pH ([1]; dose 15% (w/w), week 3) was 7.38, the pH ([1]; dose 15% (w/w), week 4) was 8.83 and the pH ([1]; dose 15% (w/w), week 6) was 9.18. For the same compound, the pH ([1]; dose 15% (w/w), week 8) was 9.14, the pH ([1]; dose 15% (w/w), week 9) was 9.07 and the “Yeast Count” value ([2]; dose 15% (w/w), week 0) was less than 10 cfu/gram. For the same compound, the “Yeast Count” value ([2]; dose 15% (w/w), week 1) was less than 10 cfu/gram, the “Yeast Count” value ([2]; dose 15% (w/w), week 2) was less than 10 cfu/gram and the “Yeast Count” value ([2]; dose 15% (w/w), week 3) was less than 10 cfu/gram. For the same compound, the “Yeast Count” value ([2]; dose 15% (w/w), week 4) was less than 10 cfu/gram, the “Yeast Count” value ([2]; dose 15% (w/w), week 5) was less than 10 cfu/gram and the “Yeast Count” value ([2]; dose 15% (w/w), week 6) was less than 10 cfu/gram. The “Yeast Count” value ([2]; dose 15% (w/w), week 7) was less than 10 cfu/gram, the “Yeast Count” value ([2]; dose 15% (w/w), week 8) was less than 10 cfu/gram and the “Yeast Count” value ([2]; dose 15% (w/w), week 9) was less than 10 cfu/gram. The “Mould Count” value ([3]; dose 15% (w/w), week 0) was less than 10 cfu/gram, the “Mould Count” value ([3]; dose 15% (w/w), week 1) was less than 10 cfu/gram and the “Mould Count” value ([3]; dose 15% (w/w), week 2) was less than 10 cfu/gram. For the same compound, the “Mould Count” value ([3]; dose 15% (w/w), week 3) was less than 10 cfu/gram, the “Mould Count” value ([3]; dose 15% (w/w), week 4) was less than 10 cfu/gram and the “Mould Count” value ([3]; dose 15% (w/w), week 5) was less than 10 cfu/gram. For the same compound, the “Mould Count” value ([3]; dose 15% (w/w), week 6) was less than 10 cfu/gram, the “Mould Count” value ([3]; dose 15% (w/w), week 7) was less than 10 cfu/gram and the “Mould Count” value ([3]; dose 15% (w/w), week 8) was less than 10 cfu/gram. For the same compound, the “Mould Count” value ([3]; dose 15% (w/w), week 9) was 350 cfu/gram, the Total plate count ([4]; dose 15% (w/w), week 0) was 40 cfu/gram and the Total plate count ([4]; dose 15% (w/w), week 1) was 80 cfu/gram. It also gave a Total plate count ([4]; dose 15% (w/w), week 3) of 100 cfu/gram, a Total plate count ([4]; dose 15% (w/w), week 4) of 10 cfu/gram and a Total plate count ([4]; dose 15% (w/w), week 6) of 50 cfu/gram. It also gave a Total plate count ([4]; dose 15% (w/w), week 7) of 40 cfu/gram, a Total plate count ([4]; dose 15% (w/w), week 8) of 70 cfu/gram and a Total plate count ([4]; dose 15% (w/w), week 9) of 10 cfu/gram.

In the case of `[Ca+2].[O-]CC(O)CO.[O-]CC(O)CO` [calcium diglyceroxide granules, calcium diglyceroxide], the total microbial count ([4]; granules 10% (w/w), 2 week time point) is reported as “below 10”, the total microbial count ([4]; granules 10% (w/w), 3 week time point) is reported as 540 and the total microbial count ([4]; granules 10% (w/w), 4 week time point) is reported as 60. The total microbial count ([4]; granules 10% (w/w), 5 week time point) was 650 and the effective period ([4]; granules 10% (w/w), Example 18) was roughly 7 weeks.

For Ca(OH2, the pH ([1]; 6.6% (w/w) powder, week 1) was 11.55, the pH ([1]; 6.6% (w/w) powder, week 2) was 11.26 and the pH ([1]; 6.6% (w/w) powder, week 3) was 12.10. For the same compound, the pH ([1]; 6.6% (w/w) powder, week 4) was 8.23, the pH ([1]; 6.6% (w/w) powder, week 5) was 11.47 and the “Yeast Count” value ([2]; 6.6% (w/w) powder, week 1) was 10 cfu/gram. The “Yeast Count” value ([2]; 6.6% (w/w) powder, week 2) was 10 cfu/gram, the “Yeast Count” value ([2]; 6.6% (w/w) powder, week 3) was 10 cfu/gram and the “Yeast Count” value ([2]; 6.6% (w/w) powder, week 4) was 120 cfu/gram. For the same compound, the “Yeast Count” value ([2]; 6.6% (w/w) powder, week 5) was 10 cfu/gram, the “Mould Count” value ([3]; 6.6% (w/w) powder, week 1) was 10 cfu/gram and the “Mould Count” value ([3]; 6.6% (w/w) powder, week 2) was 10 cfu/gram. The “Mould Count” value ([3]; 6.6% (w/w) powder, week 3) was 10 cfu/gram, the “Mould Count” value ([3]; 6.6% (w/w) powder, week 4) was 10 cfu/gram and the “Mould Count” value ([3]; 6.6% (w/w) powder, week 5) was 10 cfu/gram. The Total plate count ([4]; 6.6% (w/w) powder, week 1) was 420 cfu/gram, the Total plate count ([4]; 6.6% (w/w) powder, week 2) was 140 cfu/gram and the Total plate count ([4]; 6.6% (w/w) powder, week 3) was 640 cfu/gram. It also gave a Total plate count ([4]; 6.6% (w/w) powder, week 4) of 170 cfu/gram and a Total plate count ([4]; 6.6% (w/w) powder, week 5) of 20 cfu/gram.
